Experimental data taken from patent US10456407B2, “Combination therapy for treating cancer” (Epizyme, Inc., priority 2015, dated 2019).
Where two headings read alike, the source gives them in different places.

Experiments:
DOHH2 cells = settings: DOHH2 (WT EZH2 GCB); drug combined with Compound 44
Description: (§1) After 3 days of co-treatment, cell viability was measured via ATP content using CellTiter-Glo®
(§2) Synergy quantification is performed using the Chou-Talalay method^3 for drug combination. The Combination Index (CI) equation offers a quantitative definition for additivity (CI=1), synergism (CI<1), and antagonism (CI>1). This equation used Fa values from a constant ratio of drug combination to determine CI values. […] These Fa-CI plots are generated using the Calcusyn software.
(§3) After 3 days of co-treatment (5 days for Toledo assays), cell viability was measured via ATP content using CellTiter-Glo® (Promega) and luminescence was detected using a SpectraMax M5 microplate reader (Molecular Devices).
as §2, with “Chou-Talalay method” for “Chou-Talalay method^3”, “drug combination (Ref 1).” for “drug combination.”, “used fractional effect (Fa)” for “used Fa”, “Calcusyn for Windows software (Ref2).” for “Calcusyn software.”
(§4) Dose responses were plotted using Graphpad Prism and either 50% or 60% inhibitory concentrations were interpolated from the dose response curves.

SU-DHL10 cells [1] = tested on: SU-DHL10 cells
Description: as §1, §2, §3
as §2, with “Chou-Talalay method” for “Chou-Talalay method^3”, “drug combination (Ref 1).” for “drug combination.”, “used fractional effect (Fa)” for “used Fa”, “Calcusyn for Windows software (Ref2).” for “Calcusyn software.”
as §4

Toledo cells = settings: Toledo (WT EZH2 ABC); drug combined with Compound 44
Description: as §1, §2, §3
as §2, with “Chou-Talalay method” for “Chou-Talalay method^3”, “drug combination (Ref 1).” for “drug combination.”, “used fractional effect (Fa)” for “used Fa”, “Calcusyn for Windows software (Ref2).” for “Calcusyn software.”
as §4

WSU-DLCL2 cells = tested on: WSU-DLCL2 cells
Description: as §1, §2, §3
as §2, with “Chou-Talalay method” for “Chou-Talalay method^3”, “drug combination (Ref 1).” for “drug combination.”, “used fractional effect (Fa)” for “used Fa”, “Calcusyn for Windows software (Ref2).” for “Calcusyn software.”
as §4

H3K27me3 = settings: 4 days
Description: Histones were extracted from tumor samples as described above. […] The plates were sealed and incubated overnight at 4° C. The following day, plates were washed 3× with 300 ul/well PBST (PBS+0.05% Tween 20; 10×PBST, KPL #51-14-02) on a Bio Tek plate washer. Plates were blocked with 300 ul/well of diluent (PBS+2% BSA+0.05% Tween 20), incubated at RT for 2 hours, and washed 3× with PBST. All antibodies were diluted in diluent. […] Plates were incubated for 90 min at RT and washed 3× with PBST. […] Plates were washed 4× with PBST. For detection, 100 ul/well of TMB substrate (BioFx Laboratories, #TMBS) was added and plates incubated in the dark at RT for 5 min. Reaction was stopped with 100 ul/well IN H2SO4 Absorbance at 450 nm was read on SpectaMax M5 Microplate reader.

OCI-Ly19 cells [2] = assay: RT2 Glucocorticoid signaling PCR array, OCI-LY19 (Table 4a, printed OCT) cell line; type: cell-based; settings: vs DMSO
Source text: (§5) Expression levels of (A). Sestrin; (B). TNF and (C) GILZ normalized to DMSO controls for each cell line with the indicated single agent or combination.

SU-DHL10 cells [3] = assay: RT2 Glucocorticoid signaling PCR array, SU-DHL10 (SUDHL10) cell line (Table 4d); type: cell-based; settings: SUDHL10, 4 days, vs DMSO
Source text: as §5

H3K27 acetylation = settings: WSU-DLCL2, OCI-LY19, RL cells; 4 days
OCI-Ly19 cells [4] = assay: RT2 Glucocorticoid signaling PCR array, OCI-LY19 (Table 4a, printed OCT) cell line; type: cell-based; settings: vs DMSO; remark: listed apart in the source

C[C@]12C=CC(=O)C=C1CC[C@@H]1[C@@H]2[C@@H](O)C[C@@]2(C)[C@H]1CC[C@]2(O)C(=O)CO [Prednisolone, prednisolone]
Summary of Combinations with Compound 44: potency enhanced (DOHH2 cells): potency enhanced 2x
Summary of Combinations with Compound 44: potency enhanced (SU-DHL10 cells [1]; SU-DHL 10 (EZH2 mutant GCB), drug combined with Compound 44): potency enhanced 3x
growth inhibition by the drug by itself (SU-DHL10 cells [1]; SU-DHL10, single agent): no sensitivity
Summary of Combinations with Compound 44 (combination effect) (Toledo cells): no effect
Summary of Combinations with Compound 44: potency enhanced (WSU-DLCL2 cells; WSU-DLCL2 (EZH2 mutant GCB), drug combined with Compound 44): potency enhanced 7x
growth inhibition by the drug by itself (WSU-DLCL2 cells; WSU-DLCL2, single agent): no sensitivity
effect on H3K27 trimethylation (H3K27me3) (H3K27me3; OCI-LY19 cells, at higher doses): modest increase
effect on H3K27 trimethylation (H3K27me3) (H3K27me3; RL cells): did not have any effect
effect on H3K27 trimethylation (H3K27me3) (H3K27me3; WSU-DLCL2 cells): did not have any effect
ΔΔCT, AFF1 (OCI-Ly19 cells [2]; gene AFF1): −0.304
ΔΔCT, AMPD3 (OCI-Ly19 cells [2]; gene AMPD3): −0.109
ΔΔCT, ANXA4 (OCI-Ly19 cells [2]; gene ANXA4): 0.189
ΔΔCT, CEBPA (OCI-Ly19 cells [2]; gene CEBPA): 0.031
ΔΔCT, CREB1 (OCI-Ly19 cells [2]; gene CREB1): 0.060
ΔΔCT, CREB3 (OCI-Ly19 cells [2]; gene CREB3): −0.156
ΔΔCT, GHRHR (OCI-Ly19 cells [2]; gene GHRHR): −2.603
ΔΔCT, GOT1 (OCI-Ly19 cells [2]; gene GOT1): 0.094
ΔΔCT, PER1 (OCI-Ly19 cells [2]; gene PER1): 0.263
ΔΔCT, RGS2 (OCI-Ly19 cells [2]; gene RGS2): 0.390
ΔΔCT, SPSB1 (OCI-Ly19 cells [2]; gene SPSB1): 0.387
ΔΔCT, TBL1XR1 (OCI-Ly19 cells [2]; gene TBL1XR1): −0.234
ΔΔCT, TNF (OCI-Ly19 cells [2]; gene TNF): −0.773
ΔΔCT, VLDLR (OCI-Ly19 cells [2]; gene VLDLR): 0.081
ADARB1 ΔΔCT (SU-DHL10 cells [3]): 2.234
AK2 ΔΔCT (SU-DHL10 cells [3]): −0.345
ARIDS8 ΔΔCT (SU-DHL10 cells [3]): 1.603
ASPH ΔΔCT (SU-DHL10 cells [3]): 0.169
CEBPA ΔΔCT (SU-DHL10 cells [3]): 0.784
DDIT4 ΔΔCT (SU-DHL10 cells [3]): −1.212
H6PD ΔΔCT (SU-DHL10 cells [3]): 0.844
LOX ΔΔCT (SU-DHL10 cells [3]): −0.505
NR3C1 ΔΔCT (SU-DHL10 cells [3]): 0.256
PER2 ΔΔCT (SU-DHL10 cells [3]): −0.204
SPHK1 ΔΔCT (SU-DHL10 cells [3]): −0.279
STAT5B ΔΔCT (SU-DHL10 cells [3]): 0.719
TNF ΔΔCT (SU-DHL10 cells [3]): 0.221
VDR ΔΔCT (SU-DHL10 cells [3]): −0.245
H3K27 acetylation levels (H3K27 acetylation): not globally affected
ΔΔCT, ADARB1 (OCI-Ly19 cells [4]; gene ADARB1): −0.049
ΔΔCT, AK2 (OCI-Ly19 cells [4]; gene AK2): −0.063
ΔΔCT, ANGPTL4 (OCI-Ly19 cells [4]; gene ANGPTL4): −0.754
ΔΔCT, ARID68 (OCI-Ly19 cells [4]; gene ARID68): −0.079
ΔΔCT, ASPH (OCI-Ly19 cells [4]; gene ASPH): 0.346
ΔΔCT, ATF4 (OCI-Ly19 cells [4]; gene ATF4): 0.456
ΔΔCT, BCL6 (OCI-Ly19 cells [4]; gene BCL6): 0.239
ΔΔCT, CEBPB (OCI-Ly19 cells [4]; gene CEBPB): 0.686
ΔΔCT COL4A2 (OCI-Ly19 cells [4]; gene COL4A2): 1.601
ΔΔCT, CREB3L4 (OCI-Ly19 cells [4]; gene CREB3L4): 0.152
ΔΔCT CTGF (OCI-Ly19 cells [4]; gene CTGF): −1.080
ΔΔCT, DDIT4 (OCI-Ly19 cells [4]; gene DDIT4): −1.173
ΔΔCT, DUSP1 (OCI-Ly19 cells [4]; gene DUSP1): 0.164
ΔΔCT, EHD3 (OCI-Ly19 cells [4]; gene EHD3): −0.773
ΔΔCT, FK8PS (OCI-Ly19 cells [4]; gene FK8PS): −0.873
ΔΔCT, FOSL2 (OCI-Ly19 cells [4]; gene FOSL2): −0.480
ΔΔCT, GDPD1 (OCI-Ly19 cells [4]; gene GDPD1): 1.130
ΔΔCT GLUL (OCI-Ly19 cells [4]; gene GLUL): −0.090
ΔΔCT, H6PD (OCI-Ly19 cells [4]; gene H6PD): −0.483
ΔΔCT, HNRPLL (OCI-Ly19 cells [4]; gene HNRPLL): −0.156
ΔΔCT, KLF9 (OCI-Ly19 cells [4]; gene KLF9): −1.571
ΔΔCT, KLF13 (OCI-Ly19 cells [4]; gene KLF13): −0.075
ΔΔCT, LOX (OCI-Ly19 cells [4]; gene LOX): −1.179
ΔΔCT MERTK (OCI-Ly19 cells [4]; gene MERTK): −0.277
ΔΔCT MTZA (OCI-Ly19 cells [4]; gene MTZA): −0.169
ΔΔCT, NFKBIA (OCI-Ly19 cells [4]; gene NFKBIA): 0.043
ΔΔCT, NR3C1 (OCI-Ly19 cells [4]; gene NR3C1): −0.286
ΔΔCT PDCC7 (OCI-Ly19 cells [4]; gene PDCC7): 4.571
ΔΔCT PDGFRB (OCI-Ly19 cells [4]; gene PDGFRB): −2.242
ΔΔCT, PDP1 (OCI-Ly19 cells [4]; gene PDP1): −0.422
ΔΔCT, PIK3R1 (OCI-Ly19 cells [4]; gene PIK3R1): −0.119
ΔΔCT, PLEKHF1 (OCI-Ly19 cells [4]; gene PLEKHF1): 0.139
ΔΔCT, POU2F1 (OCI-Ly19 cells [4]; gene POU2F1): 0.048
ΔΔCT, POU2F2 (OCI-Ly19 cells [4]; gene POU2F2): −0.574
ΔΔCT, RASA3 (OCI-Ly19 cells [4]; gene RASA3): 0.009
ΔΔCT, RHOB (OCI-Ly19 cells [4]; gene RHOB): −1.763
ΔΔCT, SESN1 (OCI-Ly19 cells [4]; gene SESN1): 0.041
ΔΔCT, SGK1 (OCI-Ly19 cells [4]; gene SGK1): −1.154
ΔΔCT, SLC10A6 (OCI-Ly19 cells [4]; gene SLC10A6): −0.369
ΔΔCT, SLC19A2 (OCI-Ly19 cells [4]; gene SLC19A2): 0.410
ΔΔCT, SLC22A5 (OCI-Ly19 cells [4]; gene SLC22A5): 0.236
ΔΔCT, SNTA1 (OCI-Ly19 cells [4]; gene SNTA1): 0.119
ΔΔCT, SPHK1 (OCI-Ly19 cells [4]; gene SPHK1): 0.022
ΔΔCT, STAT5A (OCI-Ly19 cells [4]; gene STAT5A): −0.064
ΔΔCT, STAT5B (OCI-Ly19 cells [4]; gene STAT5B): 0.330
ΔΔCT, TNFAIP3 (OCI-Ly19 cells [4]; gene TNFAIP3): 0.250
ΔΔCT, TSC22D3 (OCI-Ly19 cells [4]; gene TSC22D3): −1.695
ΔΔCT, USP2 (OCI-Ly19 cells [4]; gene USP2): −0.585
ΔΔCT, USPS4 (OCI-Ly19 cells [4]; gene USPS4): 0.286
ΔΔCT, VDR (OCI-Ly19 cells [4]; gene VDR): −0.730
ΔΔCT, ZHX3 (OCI-Ly19 cells [4]; gene ZHX3): −0.730
ΔΔCT, ZNF281 (OCI-Ly19 cells [4]; gene ZNF281): 0.871
